This is an account of results in patent US8357655B2, “Wound healing peptides and methods of use thereof” (Tufts University, priority 2008, dated 2013).

Holding throughout (type): cell-based
Experiment [1] deals with human epidermal-derived keratinocytes. Briefly: in vitro wound healing assay, keratinocyte post-injury motility. The settings on record: compared with HbEGF, growth factor known to be migration-inducing in keratinocytes (FIG. 2). The method, then: Referring to FIG. 2, an in vitro wound healing assay was performed to compare the wound healing properties of two WHPs, SEQ ID NO: 3 and SEQ ID NO: 9, with a known potentiator of keratinocyte migration, heparin-binding EGF-like growth factor (HbEGF). In these experiments, confluent densities of human epidermal-derived keratinocytes were plated in vitro in defined media lacking WHPs or positive control substances. At time zero, all cultures are wounded mechanically and imaging of wounds was accomplished automatically using computer-assisted light microscope imaging. Cell cultures were injured mechanically by removing defined zones of living cells were then washed and test agents or control substances delivered. Cells recovering from injury were than quantifiably monitored using computer-assisted imaging and light microscopy. Post-injury motility was assessed using the migratory response of untreated injured cultures as a baseline for quantitative comparative analysis. Multiple experiments with multiple replicates are shown, standard deviation with error of the mean.

Experiment [2] has as its system endothelial cells. Briefly: endothelial cell proliferation assay. The note with it: peptide at 1 nM; control cultures in 5% BCS DMEM (FIG. 5). The procedure:
The WHPs provided herein induce endothelial cell proliferation. […] Endothelial cells were plated at subconfluent concentrations and allowed to attach, then new culture media was provided in the presence or absence of a WHP; control cultures were grown in 5% BCS DMEM.

A short description of experiment [3]: in vitro injury model, dose dependence. The note with it: concentrations ranging from 1 to 1000 nM (FIG. 3). The procedure:
Referring to FIG. 3, the WHPs provided herein act in dose-dependent manner. A WHP, SEQ ID NO: 9, was provided in an in vitro injury model at concentrations ranging from 1 to 1000 nM.

Experiment [4] has as its system capillary endothelial cells. Briefly: in vitro wound healing assay, capillary endothelial cell migration. The note with it: one and two hours post-injury; WHP 0.5 nM to 0.2 mM in DMEM with 1% bovine calf serum; vs control cultures (FIG. 1). The procedure:
In this assay, capillary endothelial cells were plated on tissue culture plastic and allowed to form a confluent monolayer. The monolayer was mechanically disrupted and non-adherent cells were removed, at which point the WHP was provided at a concentration within the range of sub-nanomolar (0.5 nM) to sub-millimolar (0.2 mM) in tissue culture media (DMEM with 1% bovine calf serum. Control cultures were incubated with serum alone, positive control test substances, e.g. basic fibroblast growth factor (bFGF viz, FGF2) and vascular endothelial growth factor (VEGF) (for capillary-derived endothelial cells); or heparin-binding epidermal-like growth factor (Hb-EGF) (for human skin derived keratinocytes). Other control cultures were incubated with either no peptide or a random peptide without wound healing or proliferative properties. The extent of endothelial cell migration in the WHP and control cultures was observationally determined at various time points following injury (e.g., thirty minutes, one hour, two hours, or more than two hours).

In experiment [5] the test system is capillary endothelial cells. Briefly: in vitro capillary morphogenesis (angiogenesis) assay. The settings on record: cells embedded in ECM-derived three-dimensional matrix, incubated twenty hours (FIG. 4). The procedure:
The WHPs provided herein are also useful in the promotion of capillary morphogenesis. […] Specifically, isolated capillary endothelial cells were embedded in an ECM-derived three-dimensional matrix that contained a WHP at a range of concentrations from the nanomolar (nM) to sub-millimolar (mM) (e.g., between 0.5 nM-0.2 mM) and incubated. […] In comparison, negative control cell populations (i.e., cells that were not exposed to a WHP but were exposed to serum containing media, which contains growth factors and other angiogenesis inducers) generally remained as individual cells during this timeframe at this population density.

As for “DINECEIGAPAGEETEVTVEGLEPG [SEQ ID NO: 3]”, the keratinocyte post-injury motility entry in experiment [1] was “equal or superior to the growth factor”. For the same substance, the endothelial cell proliferation entry in experiment [2] is “increase in endothelial cell proliferation”.
Turning to DINECELSANL [SEQ ID NO: 9], the keratinocyte post-injury motility entry in experiment [1] is on record as “equal or superior to the growth factor”. Besides, the “wound healing activity, dose dependence” value in experiment [3] is “dose-dependent”. Further, in experiment [2], the endothelial cell proliferation entry was “increase in endothelial cell proliferation”. For the same substance, in experiment [4], the “endothelial cell migration into the wound site” value was “substantially greater migration into the wound site”.
With “bFGF: basic fibroblast growth factor, positive control growth factor”, in experiment [5], the “formation of capillary tube like structures / in vitro angiogenesis” value was “able to promote in vitro angiogenesis to a lesser extent than populations treated with a WHP”.
